The text below walks through data of publication PMC3691235, “Discovery of a Novel Dual Fungal CYP51/Human 5-Lipoxygenase Inhibitor: Implications for Anti-Fungal Therapy” (PLoS ONE, 2013).

One may read the IC50 as the concentration needed to halve the response being measured. What is called Kd is the free concentration of one partner at which half of the binding sites on the other are occupied at equilibrium, for simple one-to-one binding.

Where two headings read alike, the source gives them in different places.

Experiment [1] has as its target T1, human COX-2 (Homo sapiens, UniProt P35354).
T1 construct: purchased Cayman chemical 60122
T1 sequence (P35354 18-604): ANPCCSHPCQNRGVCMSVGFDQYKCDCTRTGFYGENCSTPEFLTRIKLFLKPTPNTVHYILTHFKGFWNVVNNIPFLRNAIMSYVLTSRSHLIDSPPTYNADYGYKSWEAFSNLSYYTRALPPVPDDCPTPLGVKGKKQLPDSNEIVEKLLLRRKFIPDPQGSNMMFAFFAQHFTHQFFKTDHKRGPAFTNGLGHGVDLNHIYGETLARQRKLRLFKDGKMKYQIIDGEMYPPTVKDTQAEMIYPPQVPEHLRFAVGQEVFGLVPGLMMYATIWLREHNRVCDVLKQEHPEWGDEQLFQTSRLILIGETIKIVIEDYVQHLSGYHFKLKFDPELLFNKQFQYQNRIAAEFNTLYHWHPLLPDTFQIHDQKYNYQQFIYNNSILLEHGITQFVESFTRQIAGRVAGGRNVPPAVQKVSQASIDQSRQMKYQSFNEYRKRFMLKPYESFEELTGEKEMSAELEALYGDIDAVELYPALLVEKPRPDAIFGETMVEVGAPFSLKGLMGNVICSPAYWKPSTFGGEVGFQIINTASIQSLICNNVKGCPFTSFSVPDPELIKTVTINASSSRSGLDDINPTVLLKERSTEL
Description: Cyclooxygenase assay (oxygen electrode), COX-2. In kind it is biochemical. Particulars: 100 µM AA, pH 8.0, 37°C, oxygen consumption. As for the experimental part: Ovine COX-1 (Cat. No. 60100) and human COX-2 (Cat. No. 60122) were purchased from Cayman chemical. Approximately 2 µg of either COX-1 or COX-2 were added to buffer containing 100 µM AA, 0.1 M Tris-HCl buffer (pH 8.0), 5 mM EDTA, 2 mM phenol and 1 µM hematin at 37°C. Data was collected using a Hansatech DW1 oxygen electrode chamber, as described before. Inhibitor or vehicle were mixed with the respective COX in buffer within the electrode cell, the reaction was initiated by the addition of AA, followed by monitoring of rate of oxygen consumption. Ibuprofen, aspirin and indomethacin, and the carrier solvent, DMSO, were used as positive and negative controls, respectively.

Experiment [2] addresses T2, CaCYP51 (Candida albicans, UniProt P10613).
T2 construct: made in house; host or cells: E. coli
Description: CYP51 reconstitution assay, CaCYP51. In kind it is biochemical. As for the experimental part: Azole antifungal agents were added in 5 µL DMSO followed by incubation for 5 minutes at 37°C prior to assay initiation with 4 mM β-NADPHNa4, with shaking for a further 10 minutes at 37°C. Sterol metabolites were recovered by extraction with ethyl acetate followed by derivatization with N,O-bis(trimethylsilyl)trifluoroacetamide and […] prior to analysis by gas chromatography mass spectrometry.

Experiment [3] has as its target T3, Human leukocyte 5-lipoxygenase (Homo sapiens, UniProt P09917).
T3 construct: made in house
T3 sequence (P09917 1-674): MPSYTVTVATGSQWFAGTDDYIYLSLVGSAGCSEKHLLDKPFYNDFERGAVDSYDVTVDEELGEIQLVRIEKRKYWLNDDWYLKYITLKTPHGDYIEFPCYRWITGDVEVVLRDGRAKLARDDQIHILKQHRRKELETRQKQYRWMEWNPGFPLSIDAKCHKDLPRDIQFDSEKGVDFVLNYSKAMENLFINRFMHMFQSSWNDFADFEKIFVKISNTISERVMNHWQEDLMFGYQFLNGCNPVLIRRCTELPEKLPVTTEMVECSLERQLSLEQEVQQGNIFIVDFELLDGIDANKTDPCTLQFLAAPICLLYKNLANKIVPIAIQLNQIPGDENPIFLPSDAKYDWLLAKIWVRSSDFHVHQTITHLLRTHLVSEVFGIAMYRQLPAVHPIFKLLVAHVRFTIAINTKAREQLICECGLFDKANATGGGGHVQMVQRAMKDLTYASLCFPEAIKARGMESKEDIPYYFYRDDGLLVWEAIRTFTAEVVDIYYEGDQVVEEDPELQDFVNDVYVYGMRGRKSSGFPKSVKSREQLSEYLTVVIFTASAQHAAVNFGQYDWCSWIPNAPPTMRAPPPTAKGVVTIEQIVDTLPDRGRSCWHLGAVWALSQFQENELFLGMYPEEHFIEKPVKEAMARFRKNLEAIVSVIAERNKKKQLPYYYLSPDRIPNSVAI
Particulars: [13], cited from earlier work.

The target in experiment [4] is T4, C. albicans CYP51 (CaCYP51) (Candida albicans, UniProt P10613).
T4 construct: made in house; host or cells: E. coli
Description: biochemical. In kind it is binding. Here is the method:
Native cytochrome P450 concentrations were determined by reduced carbon monoxide difference spectra, based on an extinction coefficient of 91 mM^−1 cm^−1 [42], [43]. Binding of azole antifungal agents to 5 µM CaCYP51 and 5 µM HsCYP51 were performed as previously described, [44], using 0.25 and 0.5 mg mL^−1 stock solutions of ketoconazole and ketaminazole in DMSO. Azole antifungal agents were progressively titrated against the CYP51 protein in 0.1 M Tris-HCl (pH 8.1) and 25% (wt/vol) glycerol, with the spectral difference determined after each incremental addition of azole. The dissociation constant (Kd) of the enzyme-azole complex was determined by nonlinear regression (Levenberg-Marquardt algorithm) of ΔA peak-trough against azole concentration using a rearrangement of the Morrison equation [45] and fitted by the computer program ProFit 6.1.12 (QuantumSoft, Zurich, Switzerland).

For experiment [5], the target named is T5, 5-LOX (Homo sapiens, UniProt P09917).
T5 construct: made in house
T5 sequence (P09917 1-674): T3 sequence (P09917 1-674)
Description: Pseudoperoxidase activity assay. In kind it is biochemical. Particulars: 10 µM inhibitor, 10 µM 13-HPODE, positive = loss of greater than 40% of product absorption at 234 nm. As for the experimental part: The reductive properties of the inhibitors were determined by monitoring the pseudoperoxidase activity of lipoxygenase in the presence of the inhibitor and 13-(S)-hydroperoxyoctadecadienoic acid (13-HPODE). Activity is monitored by direct measurement of the product degradation following the decrease of absorbance at 234 nm using a Perkin-Elmer Lambda 40 UV/Vis spectrometer (50 mM Sodium Phosphate (pH 7.4), 0.3 mM CaCl2, 0.1 mM EDTA, 0.01% Triton X100, 10 µM 13-HPODE). All reactions were performed in 2 mL of buffer and constantly stirred with a rotating stir bar (23°C). Reaction was initiated by addition of 10 µM inhibitor (a 1 to 1 ratio to 13-HPODE), and a positive result for activity reflected a loss of greater than 40% of product absorption at 234 nm.

T2 sequence (P10613 whole entry): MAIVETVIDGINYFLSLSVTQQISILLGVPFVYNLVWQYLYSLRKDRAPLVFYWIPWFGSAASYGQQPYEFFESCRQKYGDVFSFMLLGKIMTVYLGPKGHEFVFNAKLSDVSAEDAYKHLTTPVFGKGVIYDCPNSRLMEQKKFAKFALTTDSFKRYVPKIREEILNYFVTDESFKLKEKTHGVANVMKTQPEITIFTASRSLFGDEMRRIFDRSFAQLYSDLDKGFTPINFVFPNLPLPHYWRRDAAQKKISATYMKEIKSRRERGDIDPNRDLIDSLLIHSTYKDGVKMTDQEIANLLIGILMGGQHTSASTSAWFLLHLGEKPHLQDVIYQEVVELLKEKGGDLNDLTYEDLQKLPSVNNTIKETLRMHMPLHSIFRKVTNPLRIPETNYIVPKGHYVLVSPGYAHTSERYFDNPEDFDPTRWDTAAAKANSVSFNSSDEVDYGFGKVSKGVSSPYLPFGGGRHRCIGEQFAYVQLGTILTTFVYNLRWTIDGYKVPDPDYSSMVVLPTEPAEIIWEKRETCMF
T4 sequence (P10613 whole entry): as above

Consider `CC(=O)N1CCN(c2ccc(NCc3ccc(-c4cccc(Cl)c4)o3)cc2)CC1` [Compound 13], for which the IC50 in experiment [1] was more than 150 µM.
With `CC(=O)N1CCN(c2ccc(OCC3COC(Cn4ccnc4)(c4ccc(Cl)cc4Cl)O3)cc2)CC1` (stereo not shown) [ketoconazole, reference compound], the IC50 in experiment [2] is approximately 500 nM; in experiment [1], more than 150 µM; in experiment [3] (read-out: 5-LOX IC50, ref [12]) it was more than 50000 nM. Besides, in experiment [4], binding was characterised by a dissociation constant (Kd) of 27 ± 5 nM. In experiment [4] (ratio of Kd values), the “fold difference in binding to CaCYP51 compared to ketaminazole (16)” value is recorded as 1.6 fold. Further, the “Reductive activity (pseudoperoxidase activity)” value (“Reductive activity” for short) in experiment [5] is “No”.
Compound `Cc1cc(C2CCCCC2)n(O)c(=O)c1` [ciclopirox, reference compound] showed an IC50 in experiment [1] of more than 150 µM.
In the case of `CC(C)(C)OC(=O)N1CCN(c2ccc(NCc3ccc(-c4ccc(C#N)cc4)o3)cc2)CC1` [Compound 1], the IC50 in experiment [1] was more than 150 µM. Besides, in experiment [5], the “Reductive activity” value is listed as “Yes”.
Consider `CC[C@](O)(c1nnc(NCc2ccc3c(-c4ccc(F)cc4)cc(=O)oc3c2)o1)C(F)(F)F` [setileuton, reference compound], for which the IC50 in experiment [3] (ref [2], read-out: 5-LOX IC50, literature value) was 45 ± 10 nM. Also, the “Reductive activity” value in experiment [5] was “non-reductive”; in experiment [5] (listed as Setileuton), “No”.
On to `CC(=O)N1CCN(c2ccc(NCC3COC(Cn4ccnc4)(c4ccc(Cl)cc4Cl)O3)cc2)CC1` (stereo not shown) [ketaminazole (16), ketaminazole], for which the IC50 in experiment [2] (1 µM CaCYP51, 50 µM lanosterol, read-out: CaCYP51 IC50) was approximately 900 nM; in experiment [1], more than 150 µM; in experiment [4] (in vitro), 43 nM. Besides, the CYP51 activity retained in experiment [2] (CaCYP51, at 4 µM compound) was approximately 15%. Moreover, the Kd in experiment [4] (5 µM CaCYP51, Morrison equation, read-out: Kd with CaCYP51) was 43 ± 5 nM. Moreover, the “Reductive activity” value in experiment [5] is “reductive inhibitor and Yes”.
